The results in this text go back to ChEMBL document CHEMBL1122060, “Synthesis and some pharmacological properties of Z-Tyr(SO3H)-Met-Gly-Trp-Met-Asp(Phe-NH2)-OH, a 32-beta-aspartyl analogue of cholecystokinin (pancreozymin) 27-33” (1982).

The structures appear in SMILES notation. *1 amine or outer side, *2 acyl side, *3 side chain or, on linkers, in order; H or OH if unused. Where a SMILES comes first, the peptide text is derived from it. [ ]: non-standard residue; d: D form. βAsp = O=C(O)[C@H](CC(=O)[*:2])N[*:1]

Common to all, as to assay type: functional
For assay [1], the species on record is Felis catus. Put plainly: Pancreatic response measured as optical density of the pancreatic juice secreted 30 minutes following injection of 2 ug and diluted to 25 mL with physiological saline.
Assay [2] is filed under the species Felis catus. Put plainly: Pancreatic response measured as optical density of the pancreatic juice secreted 30 minutes following injection of 1 ug and diluted to 25 mL with physiological saline.
Assay [3] is filed under the species Felis catus. Put plainly: Pancreatic response measured as optical density of the pancreatic juice secreted 30 minutes following injection of 0.5 ug and diluted to 25 mL with physiological saline.

Consider `CSCC[C@H](NC(=O)[C@H](Cc1c[nH]c2ccccc12)NC(=O)CNC(=O)[C@H](CCSC)NC(=O)[C@@H](N)Cc1ccc(O)cc1)C(=O)N[C@@H](CC(=O)N[C@@H](Cc1ccccc1)C(N)=O)C(=O)O` (H-YMGWM[βAsp]F-NH2), for which the figures for the Pancreatic response in assay [1], in assay [2] and in assay [3] were 1.47, 0.97 and 0.46, respectively.
